According to patent US9598384B2, “3-(2-amino-ethyl)-alkylidene)-thiazolidine-2,4-dione and 1-(2-amino-ethyl)-alkylidene-1,3-dihydro-indol-2-one derivatives as selective sphingosine kinase 2 inhibitors” (VIRGINIA COMMONWEALTH UNIVERSITY, priority 2012, dated 2017):
Several values for one entry are separate records, joined by “and”; a condition that tells them apart may be missing. Equal values may be shown once. Entries after “also recorded” stand apart in the source; their conditions may differ.

Assays:
SphK2 = target: T1, SphK2 (Homo sapiens, UniProt Q9NRA0); experiment: SphK2 activity assay (sphingosine substrate, with kinetic study); assay type: biochemical
T1 sequence (Q9NRA0 1-654): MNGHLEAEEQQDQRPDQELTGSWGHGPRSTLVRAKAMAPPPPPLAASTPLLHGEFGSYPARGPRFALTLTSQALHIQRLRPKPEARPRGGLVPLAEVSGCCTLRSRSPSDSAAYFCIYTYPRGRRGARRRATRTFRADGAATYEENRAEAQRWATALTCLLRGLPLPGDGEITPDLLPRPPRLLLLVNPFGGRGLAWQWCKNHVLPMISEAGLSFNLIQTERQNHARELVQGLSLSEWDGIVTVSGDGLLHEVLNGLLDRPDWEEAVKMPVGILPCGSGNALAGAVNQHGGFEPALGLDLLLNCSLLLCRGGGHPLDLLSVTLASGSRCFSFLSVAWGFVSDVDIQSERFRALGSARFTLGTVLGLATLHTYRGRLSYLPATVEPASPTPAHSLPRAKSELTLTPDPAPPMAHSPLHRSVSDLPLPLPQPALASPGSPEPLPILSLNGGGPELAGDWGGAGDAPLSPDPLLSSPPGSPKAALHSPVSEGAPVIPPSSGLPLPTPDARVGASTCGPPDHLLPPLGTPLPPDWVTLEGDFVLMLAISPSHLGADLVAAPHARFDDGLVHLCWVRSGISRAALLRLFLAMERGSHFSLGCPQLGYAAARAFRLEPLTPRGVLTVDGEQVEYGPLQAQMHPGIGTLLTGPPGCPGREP
Procedure: A) SphK1 and SphK2 activities were measured with 5 μM sphingosine in the absence or presence of the indicated concentrations of K145 or 10 μM DMS. […] Data are expressed as percentage of control activity averaged from 2 independent experiments. Data are expressed as mean value±SEM.
SphK2 was incubated with indicated compounds at 10 μM, then the activity of SphK2 was determined. The data shown here is a relative activity of SphK2 compared to control (no inhibitor, column labeled Sph in the Figure). […] “A” and “B” refer to different batches of a compound.
SphK2 was incubated with indicated compounds at 10 μM, then the activity of SphK2 was determined. The data shown here is a relative activity of SphK2 compared to control (no inhibitor).

U937 cells = experiment: Cell apoptosis assay, annexin V/PI flow cytometry; assay type: cell-based, human
Procedure: Apoptosis was measured by flow cytometry using annexin V/propidium iodide (PI) as staining reagent. […] The cells were then incubated with annexin V-fluorescein isothiocyanate (FITC) (BD PharMingen, San Diego, Calif.) and 5 μg/mL propidium iodide (PI), and incubated for 15 minutes at room temperature in the dark per the manufacturer's instructions. The samples were analyzed by flow cytometry using a Becton Dickinson FACScan (Becton Dickinson, San Jose, Calif.) within 1 hr to determine the percentage of cells displaying annexin V staining (early apoptosis) or both annexin V and PI staining (late apoptosis).

ceramide = experiment: Ceramide species in HEK293 cells by LC-ESI-MS/MS; assay type: cell-based; details: 10 μM, 2 h
Procedure: FIG. 16A-E. K145 accumulates and suppresses the S1P level. A and B) U937 cells were treated with K145 at the indicated concentrations for 3 h and the levels of K145 and S1P were measured by ESI-MS/MS. C) HEK293 cells were treated with K145 (10 μM) for 2 h. Lipids were extracted and different chain length species of ceramide were determined by LC-ESI-MS/MS. Numbers indicate chain length followed by the number of double bonds in the fatty acid. Data are averages of triplicate determinations and are expressed as pmol lipid/10^6 cells. D) U937 cells were treated with or without K145 (10 μM) for 3 h and levels of C1P species were determined by ESI-MS/MS. E) U937 cells were treated with FTY720 (1 μM) in the absence or presence of indicated K145 for 3 h, then FTY720-P was measured by ESI-MS/MS. *P<0.05 compared to control.

SphK1 = SphK1 (Homo sapiens, UniProt Q9NYA1); experiment: SphK1 activity assay; assay type: biochemical; details: relative activity vs no inhibitor; compounds at 10 μM (FIGS. 1, 4, 6)
Procedure: A) SphK1 and SphK2 activities were measured with 5 μM sphingosine in the absence or presence of the indicated concentrations of K145 or 10 μM DMS. Data are expressed as percentage SphK activity in the absence of inhibitor; B) Effect of K145 (10 μM) on activity of the indicated enzymes was tested by SelectScreen Kinase Profiling from Invitrogen. CaMK11β, Ca2+/calmodulin-dependent protein kinase II; CDK2, cyclin-dependent kinase 2; EGFR, Epidermal Growth Factor Receptor; Fyn, Fyn Kinase (p55); ERK2, extracellular signal-regulated kinase 2; ERK1, extracellular signal-regulated kinase 1; PKA, protein kinase A; PKCα, protein kinase C α; P13K, phosphatidylinositide 3-kinase. Data are expressed as percentage of control activity averaged from 2 independent experiments.
FIG. 3. SphK2 was incubated with indicated compounds at 10 μM, then the activity of SphK2 was determined. The data shown here is a relative activity of SphK2 compared to control (no inhibitor, column labeled Sph in the Figure). 96047 is a known SpK2 inhibitor. A5, B26, K25 and QLA13 are known compounds [Li et al. (2009) Bioorg Med Chem Lett 19: 6042-6046; Liu et al. (2012) Eur J Med Chem 47: 125-137] and were tested for purposes of comparison. “A” and “B” refer to different batches of a compound. FIG. 4. SphK1 was incubated with indicated compounds at 10 μM, then the activity of SphK1 was determined. The data shown here is a relative activity of SphK1 compared to control (no inhibitor, column labeled Sph in the Figure). 96091 is a known Spk1 inhibitor. A5, B26, K25 and QLA13 are as above for […]. “A” and “B” refer to different batches of a compound.
FIG. 6. SphK1 was incubated with indicated compounds at 10 μM, then the activity of SphK2 was determined. The data shown here is a relative activity of SphK2 compared to control (no inhibitor).

U937 xenograft = experiment: U937 xenografts in nude mice, i.p. administration; assay type: in vivo, BALB/c-nu mice; details: 15 mg/kg daily i.p.
Procedure: D) Body weights of mice throughout treatment. Data are expressed as mean value±SD. *P<0.05 compared to control group.
Female nude mice (BALB/c-nu, n=7) were inoculated with 3×10^7 U937 cells subcutaneously in the right flank. After 7 days of implant of U937 cells, mice were treated daily with Vehicle (control), or Tamibarotene (15 mg/Kg, positive control), or Formula III (K145) (15 mg/Kg) by i.p. administration. Tumor size was measured every other day.

Sequence of SphK1 (Q9NYA1 whole entry, species assumed): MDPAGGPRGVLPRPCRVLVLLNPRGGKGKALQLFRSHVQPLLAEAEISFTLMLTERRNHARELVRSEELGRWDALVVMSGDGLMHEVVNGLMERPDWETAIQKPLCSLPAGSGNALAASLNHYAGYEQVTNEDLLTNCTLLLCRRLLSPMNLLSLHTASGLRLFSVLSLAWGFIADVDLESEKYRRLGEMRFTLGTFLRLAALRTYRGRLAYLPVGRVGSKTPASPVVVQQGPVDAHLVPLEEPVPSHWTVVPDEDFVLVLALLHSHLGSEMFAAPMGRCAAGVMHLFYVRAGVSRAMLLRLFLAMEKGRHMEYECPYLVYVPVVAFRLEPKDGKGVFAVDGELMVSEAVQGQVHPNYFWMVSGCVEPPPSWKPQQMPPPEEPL

SMILES: CCCCOc1ccc(CC/C=C2\SC(=O)N(CCN)C2=O)cc1 [K145, 3-(2-aminoethyl)-5-[3-(4-butoxyl-phenyl)-propylidene]-thiazolidine-2,4-dione]
- Ki (SphK2; Lineweaver-Burk analysis, increasing concentrations of sphingosine): 6.4 ± 0.7 µM
- IC50 (SphK2; recombinant SphK2, 5 μM sphingosine): 5 µM and 4.3 µM
- inhibition of SphK2 activity (in words) (SphK2; relative activity vs no inhibitor, compounds at 10 μM (FIGS. 1, 3, 5)): significantly inhibit SphK2; also recorded: inhibits SphK2
- type of SphK2 inhibition (SphK2; with the substrate sphingosine): competitive inhibitor
- induction of apoptosis in U937 cells (U937 cells; 5 μM, after 18 hrs): significantly induced apoptosis
- induction of apoptosis in U937 cells (U937 cells; 10 μM, 4 hrs treatment): significantly induced apoptosis
- induction of apoptosis in U937 cells (U937 cells; varying concentrations and intervals): significantly and dose-dependently induced apoptosis
- ceramide levels (ceramide): without significant effects
- inhibition of SphK1 activity (in words) (SphK1): not SphK1
- TGI (tumor growth inhibition) (U937 xenograft; 17 days): 44.2%
- body weights of mice (U937 xenograft; compared with vehicle): remained the same
